89 compounds from a melting point compilation (Tetko et al.; mined from patent text by program, amines drawn as free bases though some values may be those of a salt) can be followed below.

In the case of `CCCCCCCCCCCCCCCCCCCCC(COC(C)=O)(COC(C)=O)NC(C)=O`, the melting point (commonly the temperature, or range, at which the solid turns liquid) lay in the range of 93 to 94 °C.

Compound `Cc1cc(SCc2ccnc3c2nc(-c2ccc(C(F)(F)F)cc2)n3C)ccc1CCC(=O)O` registered a melting point of 89 to 91 °C.

`CCCC(=O)c1cc(C(=O)C(=O)OC(=O)C(=O)c2cc(C(=O)CCC)c(C)cc2N)c(N)cc1C`: the melting point was 224 to 226 °C.

Take `CON=C(Cn1nnnc1S)C(=O)O`: the melting point was 84 to 86 °C.

For the compound `CCN(CC)C(C)COc1ccccc1C(=O)O` (centres undefined), the melting point is 137 to 140 °C.

In the case of `O=C(O)c1cn(CCc2ccc(C(F)(F)F)cc2)c2cc(C3CC3)nn2c1=O`, the melting point lay within 225 to 230 °C.

Take `COC(=O)c1cc(OC)c(C)c2c1Oc1c(C=O)c(O)cc(C)c1C(=O)O2`: the melting point fell in the range of 264 to 265 °C.

The compound `COc1ccccc1C1C(C(=O)c2ccc(C)cc2)=C(O)C(=O)N1c1ccc(C)nn1` (centres undefined) gave a melting point of 211 to 213 °C.

For the compound `CCC(CCC(=C(C#N)C(N)=O)c1cc(O)c(O)c(O)c1)NC(=O)C(C#N)=Cc1cc(O)c(O)c(O)c1` (centres undefined), the melting point was above 300 °C.

Compound `COc1ccc(CCc2nnc(-c3ccc4occc4c3)o2)cc1` showed a melting point of 127 to 128 °C.

In turn, `COc1ccc(C=O)c(OC)c1Br` displayed a melting point of 80 °C.

For `CCCCCCCCCCCCCCCCCCN=Cc1ccc(O)cc1`, the melting point was 101 °C.

The compound `CCCc1cc(C(=O)O)n(C)n1` had a melting point of 150 to 154 °C.

Consider `Cc1ccc(N)cc1Nc1cc(-c2cncnc2)ccn1`, for which the melting point lay in the range of 179 to 180 °C.

As to `COc1ccc2ccc(NC(=O)c3c(F)cccc3F)nc2n1`, the melting point was in the range of 219 to 220 °C.

`CCCOc1ccc2c(O)c([N+](=O)[O-])c(=O)oc2c1` showed a melting point of 151 to 152 °C.

For `COc1ccc(/C=C/c2nc3c([nH]2)c(=O)n(C)c(=O)n3C)c(OC)c1`, the melting point is above 280 °C.

The compound `CCOC(=O)C1=C(C(F)(F)F)Nc2n[nH]cc2C1c1ccc(C(=O)OCC)cc1` (centres undefined) returned a melting point of 157 to 160 °C.

`Cc1coc(C)c1C(=O)OC1CC(C)(C)N(CC#N)C(C)(C)C1` returned a melting point of 156 °C.

Take `O=C(O)Cc1noc(Cc2ccccc2)n1`: the melting point was in the range of 109 to 112 °C.

The compound `C[Si](C)(C)CCOCn1ccc(=O)[nH]c1=O` came in with a melting point of 120 to 122 °C.

With `CCCSc1ccc(N)c(C(=O)O)c1`, the melting point was 91 to 93 °C.

`CCCNC(=O)N1CCc2cc(S(=O)(=O)n3cc(-c4ccccc4)[nH]c3=O)ccc21`: the melting point fell in the range of 165 to 167 °C.

For the compound `CN(CCCNc1ncc(Cc2ccc(Br)cc2)c(=O)[nH]1)c1ccccn1`, the melting point was 178 to 179 °C.

For `Nc1cccc(N2C(=O)CCCC2c2ccc(Cl)c(Cl)c2)c1` (centres undefined), the melting point was 202 to 203 °C.

As for `O=C(NC1CCCCC1)NS(=O)(=O)c1ccc(CCNC(=O)N2CCCCC2=O)cc1`, the melting point was 197 to 199 °C.

As to `CCCC1=C(C#N)C(c2ccccc2OC)c2c[nH]nc2N1` (centres undefined), the melting point is 203 °C.

The compound `NS(=O)(=O)c1ccc(Cl)c(NC(=O)c2cnn3c(C(F)F)cc(-c4ccc(C(F)(F)F)cc4)nc23)c1` came in with a melting point of 286 °C.

`C1CNCCNCCNCCNCCN1` registered a melting point of 92 to 103 °C.

Take `N#Cc1ccc2oc(CCc3ccc(CO)cc3)cc2c1`: the melting point lay within 72 to 73 °C.

In turn, `Cc1cc(-c2ccc(C(F)(F)F)cc2)cn2c(-c3nc(-c4cccc(S(N)(=O)=O)c4)no3)cnc12` gave a melting point of 326 °C.

As to `Cc1oc(-c2ccco2)nc1COc1ccc(COc2nn(Cc3ccccc3)cc2CO)cc1Cl`, the melting point was in the range of 119 to 120 °C.

The compound `CCC(C)NS(=O)(=O)c1ccc(N)c(C(=O)N2CCN(C)CC2)c1` (centres undefined) yielded a melting point of 130 to 132 °C.

In turn, `CCOC(=O)C1=C(COC2CCN(C)CC2)NC(C)=C(C(=O)OC)C1c1cccc(C(F)(F)F)c1Cl` (centres undefined) displayed a melting point of 180 to 181 °C.

Consider `C=C1C(=C)C2OC1C1=C2CC2C(O)C=CC(=O)C2C1` (centres undefined), for which the melting point worked out at 110 °C.

`NC(=O)c1c(Cl)c(-c2ccccc2)n2c1CN(S(=O)(=O)c1cccs1)CC2`: the melting point fell in the range of 240 to 242 °C.

With `O=C1NC(=O)C(Cc2ccc(OCc3cccc(-c4ccccc4)c3)cc2)S1` (centres undefined), the melting point fell in the range of 109 to 111 °C.

`CC(=O)Oc1c(C)sc2ccc(C(F)(F)F)cc12` returned a melting point of 59 to 60 °C.

On to `O=c1c(Cl)c(OCc2ccc(Cl)cc2Cl)cnn1-c1ccc(Cl)cc1`, for which the melting point was 168 to 169 °C.

In the case of `COc1cc(-c2nc3ccccc3n2Cc2ccccc2Cl)cc(OC)c1OC`, the melting point worked out at 174 °C.

The compound `FC(F)(F)c1cc(C(F)(F)F)c(-c2ccc(Cl)cc2)[nH]1` showed a melting point of 41 to 43 °C.

Turning to `CCOC(=O)c1cn(C)c2cc(F)ccc2c1=O`, the melting point was 164 to 166 °C.

Take `O=C(O)COc1ccc(-c2coc3cc(OCC(=O)O)ccc3c2=O)cc1`: the melting point fell in the range of 270 to 272 °C.

`CCCCc1oc2ccccc2c1C(=O)NCc1ccc2c(Br)c(OCC(=O)OC)ccc2c1` yielded a melting point of 140 to 141 °C.

The compound `Cn1nc(CCc2ccncc2)c2c(=O)n(-c3ccccc3)c3ncccc3c21` returned a melting point of 285 to 286 °C.

`COc1ccc(C(OC(C)=O)C(COC(C)=O)[N+](=O)[O-])cc1OC` (centres undefined) registered a melting point of 85 to 88 °C.

`COc1cccc2c(OCCN3CCOCC3)c(-c3ccccc3)c(=O)oc12`: the melting point was 90 to 91 °C.

In turn, `CC(C)=CCc1cc(C2CCc3ccc(O)cc3O2)ccc1O` (centres undefined) yielded a melting point of 116 to 117 °C.

In the case of `Nc1ccncc1Nc1cccc2cc[nH]c12`, the melting point lay in the range of 68 to 70 °C.

For the compound `O=S(Cc1ccc(Cl)c(Cl)c1)c1nc2cnccc2[nH]1` (centres undefined), the melting point lay within 198 to 201 °C.

For the compound `CSC1=Nc2ccccc2C2=NCC(Cn3ccnc3)N12` (centres undefined), the melting point was in the range of 97 to 99 °C.

On to `CC(c1ccc(-c2ccccc2)s1)N(O)C(N)=O` (centres undefined), for which the melting point was in the range of 150 to 152 °C.

As to `CCCCCCC(C(=O)O)N1NCc2cc(-c3ccccc3-c3nn[nH]n3)ccc21` (centres undefined), the melting point fell in the range of 105 to 110 °C.

Compound `COC(=O)C(Cc1ccccc1)NC(=S)Nc1nc(C)cs1` (racemic) returned a melting point of 131 to 132 °C.

Consider `COC(=O)CNc1ccc(OC(=O)CC2CCN(c3ccncc3)CC2)cc1`, for which the melting point fell in the range of 120 to 122 °C.

For `Cc1cccc(Nc2cc(Nc3ccc(OCC(=O)N(CCO)CCO)cc3)ncn2)c1`, the melting point lay within 160 to 162 °C.

As to `O=C(O)c1cccc(-c2ccc3occ(-c4ccc(Cl)cc4Cl)c3c2)c1`, the melting point is 271 to 272 °C.

The compound `O=S1(=O)NC2CCCN2c2ccc(Oc3cccc(-c4nnn[nH]4)c3)cc21` (centres undefined) displayed a melting point of 266 to 272 °C.

Compound `CC(=O)CN1C(=O)c2ccccc2C12OCCO2` returned a melting point of 91 to 93 °C.

The compound `Cc1cccc(CC(=O)O)c1OCCCc1cn(-c2ccc(C(F)(F)F)cn2)nc1C1CCCCC1` gave a melting point of 184 to 185 °C.

In turn, `Oc1cccc(C2CNC3(CCCCC3)O2)c1` (centres undefined) had a melting point of 138 to 139 °C.

In turn, `COC1Oc2c(c(=O)oc3cc(O)ccc23)C1c1c(O)c2ccc(O)cc2oc1=O` (centres undefined) had a melting point above 300 °C.

Compound `Cc1cc(C)cc(C(=O)N(N(C(=O)c2ccc3c(c2C)OCCO3)C(=O)N(C)C)C(C)(C)C)c1` showed a melting point of 60 to 64 °C.

`CCOC(=O)N1CCC(c2cc3cc(OC)cc(Br)c3o2)CC1` came in with a melting point of 85 °C.

Compound `N=c1c2sc(=S)n(-c3ccccc3)c2ncn1NC(=O)c1ccco1` displayed a melting point of 228 °C.

`O=S(=O)(c1ccc(-c2ccc3cnc(Nc4ccc(N5CCOCC5)cc4)nn23)cc1)N1CCCC1`: the melting point was in the range of 182 to 184 °C.

In turn, `Oc1cc(F)ccc1Oc1ccc(-c2ccco2)cc1O` came in with a melting point of 102 to 104 °C.

As to `CS(=O)(=O)N1CCCCc2nc(-c3ccncc3)sc21`, the melting point lay within 193 to 194 °C.

`COC(=O)c1nc2c(c(-c3ccccc3)nn2-c2ccccc2)c(N)c1C(=O)OC` registered a melting point of 277 to 279 °C.

Take `COCCOC(=O)c1ccc(-c2ccc(N)cc2)c(C)c1`: the melting point was 72 to 75 °C.

In turn, `CCOC(=O)/C=C/c1cc(-n2cnnn2)cc(C)c1N` came in with a melting point of 210 to 211 °C.

Compound `CCOC(=O)C1(c2ccc(Cl)cc2)CCN(C(=O)CC(c2ccccc2)(c2ccccc2)c2ccccc2)CC1` showed a melting point of 95 to 98 °C.

On to `O=C1Nc2cc(Cl)ccc2Cn2nnnc21`, for which the melting point was in the range of 256 to 259 °C.

In turn, `CN(C)CC1CC(c2ccc(S(C)(=O)=O)cc2)=C(c2cc(F)cc(F)c2)C1=O` (centres undefined) came in with a melting point of 104 to 106 °C.

Consider `CCC(=O)c1cnccn1`, for which the melting point is 46 to 47 °C.

For the compound `CCN1c2ncc(CO)cc2C(=O)N(C)c2ccc(F)nc21`, the melting point came out at 40 °C.

In turn, `NS(=O)(=O)c1cc(C(=O)c2ccc3c(c2)CCC3)ccc1Cl` had a melting point of 164 to 166 °C.

The compound `CCCCc1ccc(NCc2ccc(N(C)C)cc2)cc1` yielded a melting point of 60 to 61 °C.

Take `COc1ccc(-c2ccc(C(=O)NO)cc2)cc1OC1CCCC1`: the melting point was 181 to 183 °C.

Turning to `CC(=O)c1c(CN2CCOCC2)[nH]c2ccc(Cl)cc12`, the melting point is 120 to 121 °C.

With `Cn1c2c(ccc1=O)C(NCCc1ccc(Cl)cc1Cl)CCC2` (centres undefined), the melting point fell in the range of 102 to 103 °C.

With `COCCN1Cc2c(cnc3c(NC(=O)c4c(Cl)cccc4Cl)cccc23)C1=O`, the melting point was determined as 246 °C.

Consider `CC1CCC(C(C)C)C(OC(=O)[C@@H](c2ccc(OCc3ccc4ccccc4n3)cc2)C2CCCCCC2)C1` (some centres undefined), for which the melting point came out at 127 °C.

As to `CC(=O)OC1CC2=CCC3C(CCC4(C)C(C(C)CCCC(C)C)CCC34)C2(C)CC1F` (centres undefined), the melting point is 116 to 119 °C.

`CC(=O)Cc1cccc2c1C(=O)c1ccccc1C2=O` registered a melting point of 198 to 200 °C.

For `Cc1ccc(C2=NNC(=O)C3CC23)cc1` (centres undefined), the melting point is 162 to 164 °C.

Take `CC(=O)OC1CSC(Sc2ccc(C(C)=O)cc2)C(OC(C)=O)C1OC(C)=O` (centres undefined): the melting point amounted to 122 °C.

Compound `NCc1ccc(-c2nc(-c3ccccc3)c(-c3ccncc3)[nH]2)cc1` registered a melting point of 214 to 215 °C.

In turn, `CCCc1nn(-c2ccc(C(F)(F)F)cn2)cc1CCCOc1nn(C2CCCCC2)cc1CC(=O)O` gave a melting point of 127 to 128 °C.
